Measurements taken from patent US20250009861A1, “ANTI-CANCER VACCINE COMPOSITION COMPRISING PEPTIDES DERIVED FROM TUMOR-ASSOCIATED ANTIGEN, AND ADJUVANT CONSISTING OF LIPOPEPTIDE AND IMMUNOACTIVE SUBSTANCE, AND USE THEREOF” (CHA VACCINE RESEARCH INSTITUTE CO., LTD, priority 2021, published 2025).

What follows are sequences tested on peripheral blood mononuclear cells (PBMCs) (assay: IFN-γ ELISPOT immunogenicity assay in PBMCs). Details: single peptides, PBMCs of healthy people, compared to control untreated with peptides; FIG. 1.
Type: cell-based, human
Protocol: To confirm the immunogenicity of the 13 peptides selected in Example 1, interferon gamma (IFNg)-enzyme linked immuno-SPOT assay (ELISPOT) was performed.
This experiment is a sensitive immunoassay that can detect cytokines secreted by a single cell. By attaching the cytokines secreted when cells are activated to a capture antibody, the secreted cytokines can be measured without being affected by proteins expressed on the cell surface or proteolytic enzymes. After attaching the cytokine to the capture antibody, the cells are removed, a detecting antibody conjugated to an enzyme that can recognize the attached capture antibody is added, and a chromogenic substrate for the enzyme is added, forming a chromogenic spot at the location of the cell secreting the cytokine, and the number of spots can be used to determine the number of cells that have responded to the stimulating antigen.
The peripheral blood mononuclear cells (PBMCs) required for the experiment were isolated from human venous blood as follows. The venous blood was diluted with 1×PBS, placed in SepMate-50 tubes, and centrifuged at 800 g for 20 minutes at room temperature. After centrifugation, the plasma and the separated PBMCs were washed, placed in each well of a 6 well tissue culture plate at a concentration of 1×10^6 cells/mL, and cultured overnight in an incubator (37° C., 5% CO2). The next day, the PBMC culture solution was recovered and centrifuged at 2000 rpm for 15 minutes at room temperature. After centrifugation, PBMCs were seeded in a 6 well cell culture plate, and peptides were added thereto and cultured to stimulate the cells.
At this time, the 13 peptides selected in Example 1 were treated alone or with various peptide combinations, and an untreated group and a ConA group were also prepared for comparative analysis. […] After attaching ELI-FOIL to the dried ELISPOT plate and stamping the membrane, the number of spots in each well was read using an ELISPOT reader. […]

Row | Sequence | immunogenicity (IFN-γ ELISPOT spots)
1 | FLWGPRALV [CHA-11] | lowest immunogenicity
2 | TQHFVQENYLEY [CHA-10, Mage-A3 (246-260) derived peptide, HLA class II, DRB1; excluded] | lowest immunogenicity
3 | LMLGEFLKL [CHA-6, Survivin (97-104) derived peptide, HLA class I, A02; excluded] | lowest immunogenicity
